The structures appear in SMILES notation.

What is called IC50 is the concentration that gives 50% inhibition. Higher therefore signals a need for much substance.

The target of the assay is HIV-1 PR (Human immunodeficiency virus type 1 group M subtype B, UniProt P04585). Description: HIV-protease inhibitory activity assay (FRET peptide substrate). Format: biochemical. The conditions noted are these: Test Example 1. The procedure, abridged:
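HIV-1 PR (0.83 ng) preincubated with compounds 20 min at room temperature in 0.1 mol/L NaAc, 0.5 mol/L NaCl, 1 mmol/L EDTA, 1 mmol/L DTT, 0.05% Tween 20, pH 4.8. Cleavage of HiLyte Fluor 488/QXL 520 FRET peptide (2 μmol/L) read after 60 minutes at 485/535 nm; IC50 from four-parameter logistic fit.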
As to `COc1ccc(S(=O)(=O)N(CC(C)C)CC(O)C(Cc2ccc(NCC3=C(c4sc5c(c4C(=O)O)CC(C)(C)CC5)C4CC(C3)C4(C)C)cc2)NC(=O)OC2COC3(C)OCCC23)cc1` (centres unmarked) [Compound I-626], the IC50 came to 4.58 nM.
`COc1ccc(S(=O)(=O)N(CC(C)C)CC(O)C(Cc2ccc(N(C)CC3=C(c4sc5c(c4C(=O)O)CC(C)(C)CC5)C4CC(C3)C4(C)C)cc2)NC(=O)OC2COC3(C)OCCC23)cc1` (centres unmarked) [Compound I-628] displayed an IC50 of 5.03 nM.
The result for `COc1ccc(S(=O)(=O)N(CC(C)C)CC(O)C(Cc2ccc(N(C)CC3CCCCC3C(=O)Nc3sc4c(c3C(=O)O)CC(C)(C)CC4)cc2)NC(=O)OC2COC3(C)OCCC23)cc1` (centres unmarked) [Compound I-629] reads 2.35 nM; that for `COc1ccc(S(=O)(=O)N(CC(C)C)CC(O)C(Cc2ccc(NCc3ccccc3-c3c(C(=O)O)[nH]c4cc(Cl)cc(Cl)c34)cc2)NC(=O)OC2COC3(C)OCCC23)cc1` (centres unmarked) [Compound I-633], 2.48 nM.
With `COc1ccc(S(=O)(=O)N(CC(C)C)CC(O)C(Cc2ccc(NCc3ccccc3-c3c(C(=O)O)[nH]c4cc(OC)ccc34)cc2)NC(=O)OC2COC3(C)OCCC23)cc1` (centres unmarked) [Compound I-634] the figure was 2.26 nM.
Take `COc1ccc(S(=O)(=O)N(CC(C)C)CC(O)C(Cc2ccc(NCc3ccccc3-c3c(C(=O)O)n(Cc4ccccc4)c4ccc(OC)cc34)cc2)NC(=O)OC2COC3(C)OCCC23)cc1` (centres unmarked) [Compound I-635]: the IC50 was determined as 2.1 nM.
Take `COc1ccc(S(=O)(=O)N(CC(C)C)CC(O)C(Cc2ccc(N3CCC(C(=O)Nc4sc5c(c4C(=O)O)CC(C)(C)CC5)C3)cc2)NC(=O)OC2COC3(C)OCCC23)cc1` (centres unmarked) [Compound I-645]: the IC50 was 2.51 nM.
Compound `COc1ccc(S(=O)(=O)N(CC(C)C)CC(O)C(Cc2ccc(N3CCC(C(=O)N(C)c4sc5c(c4C(=O)O)CC(C)(C)CC5)C3)cc2)NC(=O)OC2COC3(C)OCCC23)cc1` (centres unmarked) [Compound I-646] returned an IC50 of 2.92 nM.
Regarding `COc1ccc(S(=O)(=O)N(CC(C)C)CC(O)C(Cc2ccc(N(C)CCOc3ccccc3-c3sc4c(c3C(=O)O)CC(C)(C)CC4)cc2)NC(=O)OC2COC3(C)OCCC23)cc1` (centres unmarked) [Compound I-647], the IC50 stood at 2.59 nM.
`COc1ccc(S(=O)(=O)N(CC(C)C)CC(O)C(Cc2ccc(NCc3cc(-c4sc5c(c4C(=O)O)CC(C)(C)CC5)cc4ccccc34)cc2)NC(=O)OC2COC3(C)OCCC23)cc1` (centres unmarked) [Compound I-650] showed an IC50 of 4.31 nM.
Take `COc1ccc(S(=O)(=O)N(CC(C)C)CC(O)C(Cc2ccc(NCc3cc(Oc4ccccc4)ccc3-c3sc4c(c3C(=O)O)CC(C)(C)CC4)cc2)NC(=O)OC2COC3(C)OCCC23)cc1` (centres unmarked) [Compound I-654]: 8.75 nM corresponded to half-maximal inhibition (IC50).
Consider `COc1ccc(S(=O)(=O)N(CC(C)C)CC(O)C(Cc2ccc(NCc3cc(Cl)ccc3C(=O)Nc3sc4c(c3C(=O)O)CC(C)(C)CC4)cc2)NC(=O)OC2COC3(C)OCCC23)cc1` (centres unmarked) [Compound I-656], for which the half-inhibitory concentration (IC50) worked out at 6.57 nM.
`COc1ccc(S(=O)(=O)N(CC(C)C)CC(O)C(Cc2ccc(NCc3ccc(Cl)cc3C(=O)Nc3sc4c(c3C(=O)O)CC(C)(C)CC4)cc2)NC(=O)OC2COC3(C)OCCC23)cc1` (centres unmarked) [Compound I-657] showed an IC50 of 8.14 nM.
Turning to `COc1ccc(S(=O)(=O)N(CC(C)C)CC(O)C(Cc2ccc(N(C)Cc3cc(Cl)ccc3C(=O)Nc3sc4c(c3C(=O)O)CC(C)(C)CC4)cc2)NC(=O)OC2COC3(C)OCCC23)cc1` (centres unmarked) [Compound I-658], the midpoint of inhibition, the IC50, lay at 13.7 nM.
The result for `COc1ccc(S(=O)(=O)N(CC(C)C)CC(O)C(Cc2ccc(N(C)Cc3ccc(Cl)cc3C(=O)Nc3sc4c(c3C(=O)O)CC(C)(C)CC4)cc2)NC(=O)OC2COC3(C)OCCC23)cc1` (centres unmarked) [Compound I-659] reads 9.51 nM; that for `COc1ccc(S(=O)(=O)N(CC(C)C)CC(O)C(Cc2ccc(NCc3ccccc3-c3c(C(=O)O)[nH]c4ccccc34)cc2)NC(=O)OC2COC3(C)OCCC23)cc1` (centres unmarked) [Compound I-660], 2.12 nM.
With `COc1ccc(S(=O)(=O)N(CC(C)C)CC(O)C(Cc2ccc(NCc3ccccc3-c3c(C(=O)O)[nH]c4ccc(Cl)cc34)cc2)NC(=O)OC2COC3(C)OCCC23)cc1` (centres unmarked) [Compound I-661], the IC50 came out at 2.35 nM.
The result for `COc1ccc(S(=O)(=O)N(CC(C)C)CC(O)C(Cc2ccc(N(C)CC(=O)Nc3sc4c(c3C(=O)O)CC(C)(C)CC4)cc2)NC(=O)OC2COC3(C)OCCC23)cc1` (centres unmarked) [Compound I-663] reads 2.8 nM; that for `COc1ccc(S(=O)(=O)N(CC(C)C)CC(O)C(Cc2ccc(N3CCC(Cc4ccccc4-c4sc5c(c4C(=O)O)CC(C)(C)CC5)C3)cc2)NC(=O)OC2COC3(C)OCCC23)cc1` (centres unmarked) [Compound I-667], 7.95 nM; that for `COc1ccc(S(=O)(=O)N(CC(C)C)CC(O)C(Cc2ccc(N3CCC(Cc4ccccc4-c4sc5c(c4C(=O)O)CC(C)(C)CC5)C3)cc2)NC(=O)OC2COC3(C)OCCC23)cc1` (centres unmarked) [Compound I-668], 7.06 nM.
`CCN(Cc1ccccc1C(=O)Nc1sc2c(c1C(=O)O)CC(C)(C)CC2)c1ccc(CC(NC(=O)OC2COC3(C)OCCC23)C(O)CN(CC(C)C)S(=O)(=O)c2ccc(OC)cc2)cc1` (centres unmarked) [Compound I-669] returned an IC50 of 8.54 nM.
The result for `COc1ccc(S(=O)(=O)N(CC(C)C)CC(O)C(Cc2ccc(NCC3CCCC3c3sc4c(c3C(=O)O)CC(C)(C)CC4)cc2)NC(=O)OC2COC3(C)OCCC23)cc1` (centres unmarked) [Compound I-670] reads 2.67 nM; that for `COc1ccc(S(=O)(=O)N(CC(C)C)CC(O)C(Cc2ccc(N3CC(Oc4cc5ccccc5cc4C(=O)Nc4sc5c(c4C(=O)O)CC(C)(C)CC5)C3)cc2)NC(=O)OC2COC3(C)OCCC23)cc1` (centres unmarked) [Compound I-671], 34.8 nM.
The result for `COc1ccc(S(=O)(=O)N(CC(C)C)CC(O)C(Cc2ccc(N3CCC(C(=O)Nc4ccccc4-c4sc5c(c4C(=O)O)CC(C)(C)CC5)C3)cc2)NC(=O)OC2COC3(C)OCCC23)cc1` (centres unmarked) [Compound I-672] reads 2.05 nM.
As for `COc1ccc(S(=O)(=O)N(CC(C)C)CC(O)C(Cc2ccc(NCc3cccc4c(-c5sc6c(c5C(=O)O)CC(C)(C)CC6)cccc34)cc2)NC(=O)OC2COC3(C)OCCC23)cc1` (centres unmarked) [Compound I-675], the IC50 was 13.4 nM.
In the case of `COc1ccc(S(=O)(=O)N(CC(C)C)CC(O)C(Cc2ccc(NCc3ccc(N4CCCCC4)cc3-c3sc4c(c3C(=O)O)CC(C)(C)CC4)cc2)NC(=O)OC2COC3(C)OCCC23)cc1` (centres unmarked) [Compound I-677], the IC50 was found to be 2.32 nM.
Compound `COc1ccc(S(=O)(=O)N(CC(C)C)CC(O)C(Cc2ccc(NCc3cc(OC(F)(F)F)ccc3-c3sc4c(c3C(=O)O)CC(C)(C)CC4)cc2)NC(=O)OC2COC3(C)OCCC23)cc1` (centres unmarked) [Compound I-678] showed an IC50 of 5.48 nM.
`CN(Cc1ccccc1C(=O)Nc1sc2c(c1C(=O)O)CC(C)(C)CC2)c1ccc(CC(NC(=O)OC2COC3(C)OCCC23)C(O)CN(CC2CCCC2)S(=O)(=O)c2ccc3c(c2)OCO3)cc1` (centres unmarked) [Compound I-681] yielded an IC50 of 7.97 nM.
With `COc1ccc(S(=O)(=O)N(CC2CCC2)CC(O)C(Cc2ccc(N(C)Cc3ccccc3C(=O)Nc3sc4c(c3C(=O)O)CC(C)(C)CC4)cc2)NC(=O)OC2COC3(C)OCCC23)cc1` (centres unmarked) [Compound I-682] the figure was 4.37 nM; with `COc1ccc(S(=O)(=O)N(CC(C)C)CC(O)C(Cc2ccc(N(C)Cc3ccc(OC)cc3C(=O)Nc3sc4c(c3C(=O)O)CC(C)(C)CC4)cc2)NC(=O)OC2COC3(C)OCCC23)cc1` (centres unmarked) [Compound I-683], 5.74 nM; with `COc1ccc(S(=O)(=O)N(CC(C)C)CC(O)C(Cc2ccc(NCc3cc(Oc4cccc5cccnc45)ccc3-c3sc4c(c3C(=O)O)CC(C)(C)CC4)cc2)NC(=O)OC2COC3(C)OCCC23)cc1` (centres unmarked) [Compound I-684], 2.83 nM.
For `COc1ccc(S(=O)(=O)N(CC(C)C)CC(O)C(Cc2ccc(NCc3cc(Oc4ccccn4)ccc3-c3sc4c(c3C(=O)O)CC(C)(C)CC4)cc2)NC(=O)OC2COC3(C)OCCC23)cc1` (centres unmarked) [Compound I-685], the half-inhibitory concentration (IC50) came to 2.98 nM.
In turn, `COc1ccc(S(=O)(=O)N(CC(C)C)CC(O)C(Cc2ccc(N(C)Cc3cc(Oc4ccccn4)ccc3-c3sc4c(c3C(=O)O)CC(C)(C)CC4)cc2)NC(=O)OC2COC3(C)OCCC23)cc1` (centres unmarked) [Compound I-686] registered an IC50 of 3.6 nM.
The result for `COc1ccc(S(=O)(=O)N(CC(C)C)CC(O)C(Cc2ccc(NCc3ncccc3C(=O)Nc3sc4c(c3C(=O)O)CC(C)(C)CC4)cc2)NC(=O)OC2COC3(C)OCCC23)cc1` (centres unmarked) [Compound I-687] reads 2.48 nM; that for `COc1ccc(S(=O)(=O)N(CC(C)C)CC(O)C(Cc2ccc(NCc3cc(Oc4cccnc4)ccc3-c3sc4c(c3C(=O)O)CC(C)(C)CC4)cc2)NC(=O)OC2COC3(C)OCCC23)cc1` (centres unmarked) [Compound I-688], 2.59 nM; that for `COc1ccc(S(=O)(=O)N(CC(C)C)CC(O)C(Cc2ccc(NCc3ccc(C(F)(F)F)cc3C(=O)Nc3sc4c(c3C(=O)O)CC(C)(C)CC4)cc2)NC(=O)OC2COC3(C)OCCC23)cc1` (centres unmarked) [Compound I-690], 7.7 nM.
The result for `COc1ccc(S(=O)(=O)N(CC(C)C)CC(O)C(Cc2ccc(NCc3cc(C(F)(F)F)ccc3C(=O)Nc3sc4c(c3C(=O)O)CC(C)(C)CC4)cc2)NC(=O)OC2COC3(C)OCCC23)cc1` (centres unmarked) [Compound I-691] reads 6.44 nM; that for `COc1ccc(S(=O)(=O)N(CC(C)C)CC(O)C(Cc2ccc(N(C)Cc3cc(-c4ccc5ccccc5c4)ccc3-c3sc4c(c3C(=O)O)CC(C)(C)CC4)cc2)NC(=O)OC2COC3(C)OCCC23)cc1` (centres unmarked) [Compound I-692], 26.1 nM; that for `COc1ccc(S(=O)(=O)N(CC(C)C)CC(O)C(Cc2ccc(N(C)Cc3ncccc3C(=O)Nc3sc4c(c3C(=O)O)CC(C)(C)CC4)cc2)NC(=O)OC2COC3(C)OCCC23)cc1` (centres unmarked) [Compound I-694], 2.27 nM.
For the compound `COc1ccc(S(=O)(=O)N(CC(C)C)CC(O)C(Cc2ccc(NCc3ccc(Oc4ccccc4)cc3-c3sc4c(c3C(=O)O)CC(C)(C)CC4)cc2)NC(=O)OC2COC3(C)OCCC23)cc1` (centres unmarked) [Compound I-695], the IC50 was found to be 4.07 nM.
`COc1ccc(S(=O)(=O)N(CC(C)C)CC(O)C(Cc2ccc(N(C)Cc3ccc(Oc4ccccc4)cc3-c3sc4c(c3C(=O)O)CC(C)(C)CC4)cc2)NC(=O)OC2COC3(C)OCCC23)cc1` (centres unmarked) [Compound I-696] registered an IC50 of 12.2 nM.

The values are drawn from patent US20170253607A1, “LONG-ACTING HIV PROTEASE INHIBITOR” (Shionogi & Co., Ltd., priority 2014, published 2017).
